# In PubChem BioAssay AID2305 (GlaxoSmithKline (GSK), 2010):
# pIC50: −log10 of the molar value. Where “and” joins values, the source holds several entries; their conditions need not be identical. Equal values may be shown once.
# Tested on: P. falciparum 3D7 growth, pLDH absorbance
# Assay: P. falciparum 3D7 growth inhibition, dose response, strain 3D7 (AID 2305)
row,SMILES,pIC50
1,Oc1cccc(-c2nc3ccc(C4=N[C@H]5CCCC[C@H]5N4)cc3[nH]2)c1,6.23
2,CC(C)CCN1CCCN(Cc2ccc(C(=O)NCc3ccc(Cl)cc3)cc2)CC1,6.00
3,COc1ccc(CNC2CCN(C)CC2)cc1-c1ccc(S(=O)(=O)NC2CCC2)c(F)c1,6.08
4,O=C(COc1ccc(Cl)c(Cl)c1)NCCCCCN1CCCN(C(=O)Nc2ccc(Cl)c(Cl)c2)CC1,5.76
5,O=C(Nc1ccc(F)cc1)c1nc2ccccc2nc1Cl,5.91
6,CCc1cn2c3c(cc(C(=O)N[C@@H](Cc4ccccc4)[C@H](O)CNC4CCCCC4)cc13)N(CC)S(=O)(=O)CC2,7.52
7,COCCN(C)CCCOc1cc2c(cc1OC)ncn2-c1cc(OCc2ccccc2C(F)(F)F)c(C(N)=O)s1,6.15
8,CCCCN=C(N)Nc1ccc(OCCCOc2ccc(NC(N)=NCCCC)cc2)cc1,6.80
9,C[C@@H](N=C(Nc1ccc(-c2ccccc2)cc1)Nc1ccc(C#N)cc1O)c1ccc(Br)cc1,6.15
10,CC(C)NCc1cccc(-c2ccc(-c3nc4ccc(C(F)(F)F)cc4[nH]3)cc2)c1,6.72
11,CN(CCS(C)(=O)=O)Cc1ccc(-c2ccc3ncnc(Nc4ccc(OCc5cccc(F)c5)c(Cl)c4)c3c2)o1,6.17
12,O=[N+]([O-])c1cc2c(cc1C=NNc1nc(Nc3ccccc3)nc(Nc3ccccc3)n1)OCO2,6.06
13,CN1CCC(NCc2cccc(-c3cccc(-c4nc5ccc(C(F)(F)F)cc5[nH]4)c3)c2)CC1,6.85
14,Cc1cccc2[nH]c(-c3cccc(-c4cccc(NC(=O)Nc5ccsc5)c4)c3)nc12,6.77
15,COc1ccc(CN2CCC(CNCC(c3ccccc3)c3ccccc3)CC2)cc1,6.64
16,O=C(c1cc(-c2cccs2)[nH]n1)N1CCN(S(=O)(=O)c2ccc(Cl)s2)CC1,6.06
17,Cc1noc(C)c1-c1ccc(C(=C2CCCCCC2)c2ccc(O)cc2)cc1,6.72
18,N[C@@H](COc1cccc2c(-c3ccncc3)c(-c3cccc(NC(=O)Nc4ccccc4)c3)nn12)c1ccccc1,6.39
19,O=C(/C=C/c1ccc(Cl)c(Cl)c1)NCCCCCN1CCCC(CNC(=O)Nc2ccc(Oc3ccccc3)cc2)C1 (centres undefined),6.11
20,c1ccc(-c2cc(NCCCCNc3cc(-c4ccccc4)nc4ccccc34)c3ccccc3n2)cc1,6.89
21,Clc1ccc(CNc2ccnc(NCc3cccnc3N3CCCC3)n2)c(Cl)c1,5.93
22,O=C(Nc1cccc(-c2nn3ccccc3c2-c2ccnc(Nc3ccc(-c4cc[nH]n4)cc3)n2)c1)c1c(F)cccc1F,6.72
23,CCC1CCCCN1S(=O)(=O)c1ccc(NC(=O)c2cc(C)on2)cc1 (centres undefined),5.91
24,O=C(Nc1ccc(F)c(C(F)(F)F)c1)N[C@H]1CCN(CCCCCNC(=O)[C@@H]2C[C@H]2c2ccc(Cl)c(Cl)c2)C1,6.80

row,SMILES,pIC50
1,Cc1ccc(NC(C)C(=O)Nc2ccc(C#N)cc2)cc1S(=O)(=O)N1CCCCC1 (centres undefined),6.27
2,Cc1ccc(Nc2nccc(NCC(O)c3cccc(C(F)(F)F)c3)n2)cc1 (centres undefined),6.17
3,COc1c(C2CCN(CCCCNC(=O)c3oc(-c4ccc(Cl)cc4)cc3CO)CC2)ccc2c1CCCC2,6.43
4,Cc1cc(Nc2ccc3c(c2)CCC3)n2ncnc2n1,6.01
5,CC(=O)Nc1nc(C(=O)Nc2ccc(-c3cccc(-c4nc5ccc(C(F)(F)F)cc5[nH]4)c3)cc2)cs1,6.74
6,O=[N+]([O-])c1ccc(C=NO)nc1,6.06
7,Brc1cccc(Nc2nccc(Nc3ccc(Oc4ccccc4)cc3)n2)c1,6.00
8,CC1(C)N=C(NC(=O)c2cc([N+](=O)[O-])cc([N+](=O)[O-])c2)N=C(N)N1OCc1cccc2ccccc12,8.00
9,Cc1cc(C)cc(OCC(O)CN(Cc2cc(Cl)cc(Cl)c2)C(=O)Nc2ccccc2Cl)c1 (centres undefined),6.03
10,COc1ccc2nc3cc(Cl)ccc3c(NCCCCCCNc3c4ccc(Cl)cc4nc4ccc(OC)cc34)c2c1,6.18
11,COc1cc(CNC[C@@H](O)[C@H](Cc2ccccc2)NC(=O)c2cc(C3CCCC3)cc(N3CCCS3(=O)=O)c2)cc(OC)c1,5.91
12,O=C(NCc1ccc(Cl)c(Cl)c1)c1ccc(C2CCCN(Cc3ccc4nc[nH]c4c3)C2)cc1 (centres undefined),6.11
13,O=C(Nc1ccc(Cl)cc1)c1ccc(CN2CCCN(CC3CCCCC3)CC2)cc1,6.66
14,COc1ccc(Nc2nccc(-c3ccc4c(-c5ccsc5)cnc(N)c4c3)n2)cc1,6.62
15,CCOc1cc(C(=O)Nc2ccc3nc(N4CCN(C)CC4)cc(C)c3c2)cc(OCC)c1OCC,6.07
16,C=CCc1cc(C2CCN(CCCCNC(=O)c3ccc(-c4ccc(C#N)cc4)cc3)CC2)c(OCC(N)=O)c2c1CCCC2,6.10
17,O=C(Cc1cc(=O)oc2cc(O)ccc12)N1CCC(CN2CCC(c3c[nH]c4ccccc34)CC2)CC1,6.06
18,COc1c(CN2CCOCC2)cccc1-c1cc2c(-c3ccc(C(=O)O)c(C(C)C)c3)ccnc2[nH]1,6.13
19,CC(Sc1nc(-c2ccccc2)c(-c2ccccc2)o1)C(=O)NC1CC1 (centres undefined),6.08
20,O=C(NCC1CCC(CNCCCc2ccccc2)CC1)c1cc(Cl)cc(Cl)c1 (centres undefined),6.07
21,Nc1ncnc2cc(-c3cccc(S(N)(=O)=O)c3)sc12,6.82
22,CC(C)C[C@H](NC(=O)c1cc(-c2ccc(C(C)(C)C)cc2)no1)C(=O)O (tested in a mixture with another compound),6.72
23,CC1=C(C(=O)NC2CCC(CN3CCC(c4c[nH]c5ccccc45)CC3)CC2)Cc2ccccc21 (centres undefined),6.08 and 6.00
24,CC(C)n1nc(C(=O)N2CCN(c3ccccc3)CC2)c2ccccc2c1=O,6.01

row,SMILES,pIC50
1,COc1ccc(NC(=O)/C=C/c2ccccc2Cl)cc1OCCN1CCC(Cc2cc3ccccc3[nH]2)CC1,6.05
2,CCCCCN1CCCC(CNS(=O)(=O)c2ccc(C(=O)Nc3ccc(C(F)(F)F)cc3)cc2)C1 (centres undefined),6.04
3,COc1ccc(Nc2nccc(NCC(O)c3cccc(C(F)(F)F)c3)n2)cc1 (centres undefined),6.05
4,COc1cccc(NC(=O)[C@H](C(C)C)n2c(=O)[nH]c3ccccc3c2=O)c1,6.57
5,CCOC(=O)c1ccc(NC(=O)Nc2ccc(-c3ccc(-c4nc5ccccc5[nH]4)cc3)cc2)cc1,7.70
6,Fc1ccc(Nc2ccnc3cc(-c4cccc(CNCCN5CCOCC5)c4)ccc23)c(Cl)c1,6.85
7,COc1cc(C)nc2ccc(NC(=O)Nc3ccccc3[N+](=O)[O-])cc12,6.08
8,COc1cc(NC(=O)C(c2ccc(Cl)cc2)C(C)C)cc(OC)c1 (centres undefined),6.14
9,Cc1cccc2[nH]c(-c3cccc(-c4cccc(NC(=O)Nc5ccc(Cl)c(Cl)c5)c4)c3)nc12,6.43
10,CC(CCCCOCCc1ccccc1)NCC(O)c1cc(Cl)c(N)c(Cl)c1 (centres undefined),6.10
11,COc1ccc2nccc([C@@H](O)CN3CCC(NCc4cc5c(Cl)cc(Cl)cc5[nH]4)CC3)c2c1,7.22
12,O=S(=O)(/C=C/c1ccccc1)N(Cc1ccc(-c2ccc(CNCCc3ccccc3)cc2)cc1)CC1CCCCN1 (centres undefined),6.10
13,COc1ccc(-c2cnc3ccc(N4CCCC4)nn23)cc1OC,6.11
14,CCN(Cc1ccccc1)CC(O)c1ccc(Cl)c(Cl)c1 (centres undefined),6.74
15,c1cc(CNCCc2ccncc2)cc(-c2ccc(-c3nc4ccccc4[nH]3)cc2)c1,6.82
16,Cc1ccc(NC(=O)c2ccc(CN3CCCN(CC4CCCCC4)CC3)cc2)cc1C,5.99
17,COc1ccc(C2CNCc3c2cc(OC)c(OC)c3Cl)cc1 (centres undefined),6.14
18,COc1ccc2nccc([C@@H](O)CN3CCC(NC(=O)/C=C/c4ccc5[nH]c(=O)ccc5c4)CC3)c2c1,6.01
19,CC(C)CNCc1ccc(-c2cccc(CN(CCN(C)C)C(=O)NCCc3ccccc3)c2)cc1,5.97
20,CCNc1cc(C(=O)N[C@@H](Cc2ccccc2)[C@H](O)CNC2CCC(F)(F)CC2)c(F)c(N2CCCCS2(=O)=O)c1,6.68
21,CCN(CC)C(=NCCCCCCN=C(/N=C(\N)c1ccc(Cl)cc1)N(CC)CC)/N=C(\N)c1ccc(Cl)cc1,6.42
22,COc1ccc(C[C@H](N)C(=O)N[C@H]2[C@@H](O)[C@H](n3cnc4c(N(C)C)ncnc43)O[C@@H]2CO)cc1,6.52
23,Cc1[nH]cc(Br)c(=O)c1-c1ccc(Oc2ccccc2)cc1,6.17
24,COc1ccc2cc(-c3nc(-c4c(Cl)cccc4Cl)[nH]c3-c3ccnc(NCCC4CCCN4C)c3)ccc2c1 (centres undefined),5.99

row,SMILES,pIC50
1,Cc1nc2ccc3ccc(CNc4ccc(C(=O)N[C@@H](CCC(=O)O)C(=O)N[C@@H](Cc5cccs5)C(=O)O)c(F)c4)cc3c2c(=O)[nH]1,6.10
2,CCCc1cc(NC2CCN(C)CC2)nc(Nc2ccc(C)cc2)n1,6.05
3,CCCCCC(C)(C)NC[C@@H](O)[C@H](Cc1ccccc1)NC(=O)c1cc(NCC)cc(N2CCCC2=O)c1,6.17
4,COc1ccc2nccc(NN=Cc3cccc(Cl)c3)c2c1,6.72
5,O=C(c1csc(-c2cccnc2)n1)N1CCc2cc3nccc(N4CCN5CCC[C@H]5C4)c3cc21,6.15
6,CCCOc1cc2c(cc1OCCC)C(C=Cc1ccc(Cl)cc1Cl)=NC(C)C2 (centres undefined),6.43
7,O=C(Nc1cccc(CN2CCCN(CC3CC3)CC2)c1)c1ccc(-c2ccccc2)cc1,6.03
8,Cc1nc2c(s1)c(=O)cc(CCc1cccc(F)c1F)n2CC(=O)N(Cc1ccc(-c2ccc(C(F)(F)F)cc2)cc1)C1CCN(C(C)C)CC1,6.11
9,CCOc1ccc(-c2nonc2NC(=O)c2ccccc2Cl)cc1OCC,6.13
10,CCCN(CCC)C(=O)c1cc(C(=O)N[C@@H](Cc2ccccc2)[C@H](O)CNC(C)(C)c2cccc(C(F)(F)F)c2)cc(N2CCCCS2(=O)=O)c1,7.40
11,O=C(Nc1cccc(-c2nn3ccccc3c2-c2ccnc(Nc3cccc(N4CCCC4=O)c3)n2)c1)c1cc(F)ccc1F,6.68
12,Cn1c(=O)c2nc(-c3ccc(Cl)cc3)nnc2n(CCCC#N)c1=O,6.82
13,O=C(NCCN1CCCC1)c1cccc(-c2ccc(-c3nc4ccc(C(F)(F)F)cc4[nH]3)cc2)c1,6.12
14,CNC(=S)NCc1cnc2ccccn12,6.70
15,Cc1cccc(Nc2nccc(NCC(O)c3cccc(C(F)(F)F)c3)n2)c1 (centres undefined),6.29
16,CCCCCCNc1cc(C)nc2ccc(OC)cc12,6.26
17,FC(F)(F)c1ccc2nc(-c3ccc(-c4cccc(CNCCc5cccnc5)c4)s3)[nH]c2c1,6.77
18,CCn1c(Sc2ccc(C#N)c([N+](=O)[O-])c2)nnc1-c1ccc(OC)cc1,6.09
19,CCNC(=O)c1cc(S(=O)(=O)N2CCN(c3ccccn3)CC2)cs1,6.06
20,CN(CCc1ccccn1)Cc1ccc(-c2ccc(-c3nc4ccccc4[nH]3)s2)cc1,6.23
21,Cc1nnsc1C(=O)Nc1ccc(-c2ccc(-c3nc4c(C)cccc4[nH]3)s2)cc1,6.23
22,CCOC(=O)C(NC(=O)Cc1ccccc1)C(C)C (centres undefined),6.54
